The source made the active and inactive calls. The calls are words filed in the database; no cut-off is given here.
Columns and labels:
Adenosine receptor A2a [1] = biological target: T1, Adenosine receptor A2a (Homo sapiens, UniProt P29274); experiment: Antagonist activity at adenosine 2A receptor (unknown origin)
Adenosine receptor A2b [2] = biological target: T2, Adenosine receptor A2b (Homo sapiens, UniProt P29275); experiment: Antagonist activity at adenosine 2B receptor (unknown origin); assay type: functional
T2 sequence (P29275 whole entry): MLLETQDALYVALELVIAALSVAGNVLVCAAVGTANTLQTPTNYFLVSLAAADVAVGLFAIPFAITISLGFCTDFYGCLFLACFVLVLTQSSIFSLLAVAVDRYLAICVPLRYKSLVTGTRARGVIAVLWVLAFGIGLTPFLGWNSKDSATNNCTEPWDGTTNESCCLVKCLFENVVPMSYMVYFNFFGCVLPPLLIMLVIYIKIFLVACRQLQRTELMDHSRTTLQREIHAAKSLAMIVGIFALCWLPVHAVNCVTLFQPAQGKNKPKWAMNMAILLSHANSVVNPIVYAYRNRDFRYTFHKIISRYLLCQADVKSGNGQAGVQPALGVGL

Adenosine receptor A2a [3] = biological target: T1, Adenosine receptor A2a; experiment: Antagonist activity at human adenosine 2A receptor overexpressed in HEK293 cells preincubated for 0.5 hrs followed by NECA stimulation by GloSensor cAMP assay; assay type: functional, cell-based
Adenosine receptor A2b [4] = biological target: T2, Adenosine receptor A2b; experiment: Antagonist activity at human adenosine 2B receptor overexpressed in HEK293 cells preincubated for 0.5 hrs followed by NECA stimulation by GloSensor cAMP assay; assay type: functional, cell-based
Homo sapiens = organism: Homo sapiens; experiment: Selectivity ratio of IC50 for antagonist activity at human adenosine 2A receptor overexpressed in HEK293 cells to IC50 for antagonist activity at human adenosine 2B receptor overexpressed in HEK293 cells; assay type: cell-based
Adenosine receptor A1 = biological target: T3, Adenosine receptor A1 (Homo sapiens, UniProt P30542); experiment: Antagonist activity at human Adenosine A1 receptor overexpressed in HEK293 cells preincubated for 0.5 hrs followed by NECA stimulation by GloSensor cAMP assay; assay type: functional, cell-based
T3 sequence (P30542 whole entry): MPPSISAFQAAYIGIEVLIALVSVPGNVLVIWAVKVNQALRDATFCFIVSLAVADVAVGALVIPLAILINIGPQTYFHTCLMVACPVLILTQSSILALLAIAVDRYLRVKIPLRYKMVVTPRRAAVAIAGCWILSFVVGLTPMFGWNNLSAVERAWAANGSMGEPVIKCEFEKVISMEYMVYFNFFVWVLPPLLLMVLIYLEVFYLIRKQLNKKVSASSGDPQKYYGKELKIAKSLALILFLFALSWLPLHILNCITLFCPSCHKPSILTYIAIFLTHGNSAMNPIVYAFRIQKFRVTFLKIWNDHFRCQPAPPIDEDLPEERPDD

Adenosine receptor A3 = biological target: T4, Adenosine receptor A3 (Homo sapiens, UniProt P0DMS8); experiment: Antagonist activity at human Adenosine A3 receptor overexpressed in HEK293 cells preincubated for 0.5 hrs followed by NECA stimulation by GloSensor cAMP assay; assay type: functional, cell-based
T4 sequence (P0DMS8 whole entry): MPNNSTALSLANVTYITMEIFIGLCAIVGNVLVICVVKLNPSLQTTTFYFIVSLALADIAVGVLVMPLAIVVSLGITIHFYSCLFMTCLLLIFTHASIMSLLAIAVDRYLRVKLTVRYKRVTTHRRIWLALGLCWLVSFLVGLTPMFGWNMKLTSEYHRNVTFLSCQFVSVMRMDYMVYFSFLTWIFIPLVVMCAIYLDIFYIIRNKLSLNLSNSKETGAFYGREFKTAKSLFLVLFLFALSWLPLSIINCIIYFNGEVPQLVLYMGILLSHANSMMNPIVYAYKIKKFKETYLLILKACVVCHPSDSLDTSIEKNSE

Adenosine receptor A2a [5] = biological target: T1, Adenosine receptor A2a; experiment: (§1) Antagonist activity at human adenosine 2A receptor expressed in HEK293 cells co-expressing CRE-luciferase plasmid assessed as inhibition of NECA-stimulated luciferase expression preincubated with compound for 0.5 hrs followed by NECA stimulation and measured after 4 hrs by luciferase based CRE reporter assay; assay type: functional, cell-based
Adenosine receptor A2b [6] = biological target: T2, Adenosine receptor A2b; experiment: as §1, with “2B” for “2A”; assay type: functional, cell-based
Adenosine receptor A2a [7] = biological target: T1, Adenosine receptor A2a; experiment: Antagonist activity at human adenosine 2A receptor overexpressed in HEK293 cells preincubated for 0.5 hrs followed by NECA stimulation by Schild plot based GloSensor cAMP assay; assay type: functional, cell-based; settings: read-out: pA2 (converted)
Adenosine receptor A2b [8] = biological target: T2, Adenosine receptor A2b; experiment: Antagonist activity at human adenosine 2B receptor overexpressed in HEK293 cells preincubated for 0.5 hrs followed by NECA stimulation by Schild plot based GloSensor cAMP assay; assay type: functional, cell-based; settings: read-out: pA2 (converted)
[9] = Downregulation of NECA-induced PD-1 expression in human Jurkat T cells at 0.1 to 10 uM incubated for 5 hrs in presence of PMA and ionomycin by q-PCR analysis; assay type: functional; settings: dose 0.1-10 µM
[10] = Downregulation of NECA-induced TIM-3 expression in human Jurkat T cells at 0.1 to 10 uM incubated for 5 hrs in presence of PMA and ionomycin by q-PCR analysis; assay type: functional; settings: dose 0.1-10 µM
MC38-OVA = experiment: Induction of T-cell mediated cell death in mouse MC38-OVA cells co-cultured with OT-1 CTL assessed as reversal of NECA-induced impairment in OT-I CTL mediated cell killing at 10 uM incubated for 48 hrs by calcein AM dye based fluorescence microscopic analysis; assay type: functional

T1 sequence (P29274 whole entry): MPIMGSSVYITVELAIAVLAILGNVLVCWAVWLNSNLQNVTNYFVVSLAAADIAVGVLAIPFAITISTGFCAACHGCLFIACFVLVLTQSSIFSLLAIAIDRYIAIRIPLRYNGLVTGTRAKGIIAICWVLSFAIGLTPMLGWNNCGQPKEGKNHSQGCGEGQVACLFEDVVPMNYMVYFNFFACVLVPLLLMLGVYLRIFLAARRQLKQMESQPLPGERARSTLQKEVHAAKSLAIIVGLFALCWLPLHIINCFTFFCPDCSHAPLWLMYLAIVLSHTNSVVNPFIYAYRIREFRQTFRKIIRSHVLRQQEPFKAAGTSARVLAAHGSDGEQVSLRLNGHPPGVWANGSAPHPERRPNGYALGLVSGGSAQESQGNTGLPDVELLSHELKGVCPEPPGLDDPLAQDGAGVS

| Structure (SMILES) | IC50 (Adenosine receptor A2a [3]) [nM] | IC50 (Adenosine receptor A2b [4]) [nM] | Ratio IC50 (Homo sapiens) | other results |
| --- | --- | --- | --- | --- |
| COc1ncc(C2=CCOCC2)c2sc(NC(=O)N3CC[C@@]4(CCCOC4)C3)nc12 [MUVADENANT] |  |  |  | IC50 (Adenosine receptor A2a [1]): < 10 nM; IC50 (Adenosine receptor A2b [2]): < 10 nM |
| Cc1ccc2c(Cn3cc(-c4cc(-c5cccc(C#N)c5C)nc(N)n4)nn3)c[nH]c2c1 | 324 | 48.6 | 6.7 |  |
| Cc1ccc2[nH]cc(Cn3cc(-c4cc(-c5cccc(C#N)c5C)nc(N)n4)nn3)c2c1 | 103 | 43.4 | 2.4 |  |
| Cc1c(C#N)cccc1-c1cc(-c2cn(Cc3c[nH]c4ncccc34)nn2)nc(N)n1 | 2260 | 215 | 10.5 |  |
| Cc1c(C#N)cccc1-c1cc(-c2cn(Cc3c[nH]c4cccnc34)nn2)nc(N)n1 |  | 3.6 |  |  |
| Cc1c(C#N)cccc1-c1cc(-c2cn(Cc3c[nH]c4cc(S(C)(=O)=O)ccc34)nn2)nc(N)n1 | 431 | 3.4 | 127 |  |
| Cc1c(C#N)cccc1-c1cc(-c2cn(Cc3csc4ccccc34)nn2)nc(N)n1 | 34.8 | 131 | 0.3 |  |
| Cc1c(C#N)cccc1-c1cc(-c2cn(Cc3c[nH]c4cccc(Cl)c34)nn2)nc(N)n1 | 172 | 316 | 0.5 |  |
| Cc1c(C#N)cccc1-c1cc(-c2cn(Cc3c[nH]c4cc(F)ccc34)nn2)nc(N)n1 | 120 | 13.7 | 8.8 |  |
| Cc1c(C#N)cccc1-c1cc(-c2cn(Cc3cccc(C(C)(C)O)n3)nn2)nc(N)n1 [ETRUMADENANT] | 7.5 | 31.4 | 0.2 | Ki (Adenosine receptor A2a [1]): 0.851 nM; Ki (Adenosine receptor A2b [2]): 3.16 nM; IC50 (Adenosine receptor A1): 87.3 nM |
| Cc1c(C#N)cccc1-c1cc(-c2cn(Cc3cccc4cc[nH]c34)nn2)nc(N)n1 | 7860 | > 100000 |  |  |
| Cc1c(C#N)cccc1-c1cc(-c2cn(Cc3cn(C)c4ccccc34)nn2)nc(N)n1 | > 100000 | > 100000 |  |  |
| Cc1c(C#N)cccc1-c1cc(-c2cn(Cc3ccc4[nH]ccc4c3)nn2)nc(N)n1 | 1010 | 43.1 | 23.5 |  |
| Cc1c(C#N)cccc1-c1cc(-c2cn(Cc3ccc4cc[nH]c4c3)nn2)nc(N)n1 | 427 | 134 | 3.2 |  |
| Cc1c(C#N)cccc1-c1cc(-c2cn(Cc3cnc4ccccn34)nn2)nc(N)n1 | > 100000 | > 100000 |  |  |
| Cc1c(C#N)cccc1-c1cc(-c2cn(Cc3c[nH]c4cc(Cl)ccc34)nn2)nc(N)n1 | 753 | 55.8 | 13.5 |  |
| Cc1c(C#N)cccc1-c1cc(-c2cn(Cc3n[nH]c4ccccc34)nn2)nc(N)n1 | 129 | 41.7 | 3.1 |  |
| Cc1c(C#N)cccc1-c1cc(-c2cn(Cc3c[nH]c4ccc(C#N)cc34)nn2)nc(N)n1 | 11.2 | 6.4 | 1.8 | IC50 (Adenosine receptor A1): > 1000 nM; IC50 (Adenosine receptor A3): > 1000 nM; IC50 (Adenosine receptor A2a [5]): 7.3 nM; IC50 (Adenosine receptor A2b [6]): 8.1 nM; Kb (Adenosine receptor A2a [7]): 1.62 nM; Kb (Adenosine receptor A2b [8]): 1.32 nM; Activity [9]: ~100%; Activity [10]: ~100%; Activity (MC38-OVA): Active |
| Cc1c(C#N)cccc1-c1cc(-c2cn(Cc3cc4ccccc4[nH]3)nn2)nc(N)n1 |  | 654 |  |  |
